Here are results for two compounds from patent publication US20260263361A1, “CANNABIDIOL AQUEOUS SOLUTION COMPOSITION AND CANNABIDIOL-CONTAINING PHARMACEUTICAL PREPARATION COMPRISING SAME” (priority 2023, published 2026).

Data set [1] is described as follows: Primary solubilizer mixed with an additional solubilizer, extent of CBD dissolution observed. Format: physicochemical. As for the experimental part: Due to the compatibility required between ingredients for use in the CBD aqueous solution formulation, additional solubilizerswere mixed with the selected primary components, and the extent of CBD dissolution was evaluated.

A short description of data set [2]: Long-term stability of CBD-containing film: CBD content by HPLC after storage under harsh conditions. Format: physicochemical. As for the experimental part:
The long-term stability of the orally disintegrating film of Example 2, having the composition of Table 6, was evaluated.
For comparison, the long-term stability of CBD in the orally disintegrating film containing CBD-prepared according to the composition shown in Table 7 and corresponding to Korean Patent Application No. 10-2019-0097649—was evaluated as Comparative Example 2.
Immediately after film formation, the films were packaged in airtight containers and left under harsh conditions for 0, 24, and 72 hours, after which the CBD content was analyzed by high-performance liquid chromatography (HPLC).
Additionally, further experiments were conducted to increase the stability of the orally disintegrating film of the current Example 2.

As for `OCC(O)CO` [Glycerin], the “state of CBD in aqueous solution (FIG. 1)” value in data set [1] was “not dissolved and appeared as precipitate or crystals”.
Take `C=C(C)[C@@H]1CCC(C)=C[C@H]1c1c(O)cc(CCCCC)cc1O` [CBD isolate powder, 2-[(1R,6R)-3-methyl-6-(1-methylethenyl)-2-cyclohexen-1-yl]-5-pentyl-1,3-benzenediol]: the “Decrease (24 hrs, %)” value in data set [2] (24 hrs vs 0 hr) worked out at 0.28%. For the same compound, the “CBD content 0 hr” value in data set [2] (airtight container, 0 hr, HPLC) was 103.58. Further, in data set [2] (airtight container, 24 hr, HPLC), the “CBD content 24 hr” value is 103.86.
